Experiments:
[1] = tested on: Human Keratinocytes cell line (HaCaT); assay: Cytoprotective activity against AGE (methylglyoxal) induced oxidative stress, tryphan blue dye exclusion assay; format: cell-based; conditions: HaCaT cells treated with Methylglyoxal and test substance, 24 h; Metformin 5 mg; Test I 3.5 mg; Test II 0.5 mg; Test III 5 mg + 0.02 mg; Test IV 0.2 mg + 0.2 mg; Test V 3.5 mg + 0.5 mg
Experimental: (§1) The purpose of this study is to evaluate cytoprotective activity of test substance against advanced glycation end product (AGE) induced oxidative stress in Human Keratinocytes cell line (HaCaT). About 10 mg of the test substance was dissolved separately with 1 mL DMEM-HG supplemented with 2% inactivated FBS to obtain a stock solution of 10 mg/mL concentration and sterilized by 0.22μ syringe filtration. Dilute the stock to desired concentrations for carrying out further studies. HaCaT (Human Keratinocytes cells) was procured from AddexBio, U.S. Stock cells were cultured in DMEM-HG supplemented with 10% inactivated Fetal Bovine Serum (FBS), penicillin (100 IU/mL), streptomycin (100 μg/mL) and amphotericin B (5 μg/mL) in humidified atmosphere of 5% CO2 at 37° C. until confluent. The cells were dissociated with TPVG solution (0.2% trypsin, 0.02% EDTA, 0.05% glucose in PBS). The stock cultures were grown in 25 cm^2 culture flasks and all experiments were carried out in 96 microtitre plates (Tarsons India Pvt. Ltd., Kolkata, India). [table] The monolayer cell culture was trypsinized and the cell count was adjusted to 1.5×10^5 cells/mL using DMEM-HG containing 10% FBS. To each well of the 6 well plates, 2 mL of the diluted cell suspension was added. After 24 hours, when a partial monolayer was formed, supernatant was removed and washed the monolayer once with PBS and 1 mL of different test concentrations and combinations of test substances were added. The plate was then incubated at 37° C. for 24 h in a 5% CO2 atmosphere, and microscopic examination was carried out and observations were noted after 24 hours time. After 24 hours, the media was discarded and cells were trypsinized and pelleted by centrifugation, suspended in 1 mL of fresh media and performed dye exclusion test, i.e., mixed equal volume of cells suspended media and Tryphan blue. Viable and non-viable cells were counted using haemocytometer and values were recorded, and then percentage cell viability was calculated.

[2] = In vitro cytotoxicity by MTT assay in HaCaT cells; format: cell-based; conditions: human, HaCaT keratinocyte cells
Experimental: The in vitro cytotoxicity was performed on Human Keratinocytes (HaCaT) cell line to find the non-toxic concentrations of the test substances by MTT assay and evaluate their cytoprotective activity against advanced glycation end product (AGE) induced oxidative stress in Human Keratinocytes.
About 10 mg of the test substance was dissolved separately with 1 mL DMEM-HG supplemented with 2% inactivated FBS to obtain a stock solution of 10 mg/mL concentration and sterilized by 0.22μ syringe filtration. Dilute the stock to desired concentrations for carrying out further studies.
HaCaT (Human Keratinocytes cells) was procured from AddexBio, U.S. Stock cells were cultured in DMEM-HG supplemented with 10% inactivated Fetal Bovine Serum (FBS), penicillin (100 IU/mL), streptomycin (100 μg/mL) and amphotericin B (5 μg/mL) in humidified atmosphere of 5% CO2 at 37° C. until confluent. The cells were dissociated with TPVG solution (0.2% trypsin, 0.02% EDTA, 0.05% glucose in PBS). The stock cultures were grown in 25 cm^2 culture flasks and all experiments were carried out in 96 microtitre plates (Tarsons India Pvt. Ltd., Kolkata, India).
The cell culture monolayer was trypsinized and the cell count was adjusted to 1.0×10^5 cells/mL using DMEM-HG containing 10% FBS. To each well of the 96 well microtitre plate, 0.1 mL of the diluted cell suspension was added. After 24 hours, when a partial monolayer was formed, the supernatant was flicked off, the monolayer was washed once with PBS and 100 μL of different concentrations of test substance was added. The plate was then incubated at 37° C. for 24 hours in a 5% CO2 atmosphere, and microscopic examination was carried out and observations were noted after 24 h time.
After 24 hours of incubation, the drug solution in the wells was discarded and 50 μL of MTT in DPBS was added to each well. The plate was gently shaken and incubated for 3 hours at 37° C. in a 5% CO2 atmosphere. The supernatant was removed and 100 μL of DMSO was added and the plate was gently shaken to solubilize the formed formazan. The absorbance was measured using a micro plate reader at a wavelength of 570 nm. The percentage growth inhibition was calculated using the standard formula. The concentration of test substance, needed to inhibit the growth of the cell by 50% i.e., CTC50 values were generated from the dose-response curves.

[3] = Cytoprotective activity against AGE (methylglyoxal) induced oxidative stress, tryphan blue dye exclusion assay; format: cell-based, Human; conditions: human, HaCaT keratinocyte cells, HaCaT cells treated only with Methylglyoxal 300 μM (positive control)
Experimental: as §1

In the case of Cc1ncc(CO)c(CN)c1O [2-methyl-4-aminomethyl-5-hydroxymethyl-3-Pyridinol], the “% Viability” value [1] is reported as 41.23%, the cytotoxicity at 24 h, 0.125 mg/mL ([2]; test concentration 0.125 mg/mL) is reported as 4.55% and the cytotoxicity at 24 h, 0.25 mg/mL ([2]; test concentration 0.25 mg/mL) is reported as 5.68%. For the same compound, the cytotoxicity at 24 h, 0.5 mg/mL ([2]; test concentration 0.5 mg/mL) was 25.6%, the cytotoxicity at 24 h, 1 mg/mL ([2]; test concentration 1 mg/mL) was 63.4% and the cytotoxicity at 24 h, 2 mg/mL ([2]; test concentration 2 mg/mL) was 67%. It also gave a cytotoxicity at 24 h, 3 mg/mL ([2]; test concentration 3 mg/mL) of 67.5%, a cytotoxicity at 24 h, 4 mg/mL ([2]; test concentration 4 mg/mL) of 75.8% and a cytotoxicity at 24 h, 5 mg/mL ([2]; test concentration 5 mg/mL) of 76%.
For CN(C)C(=N)N=C(N)N [Metformin, reference compound], the “% Viability” value [1] was 70.79%.
For CC(=O)C=O [Methylglyoxal, reference compound], the viability at 24 h, 300 μM [3] was roughly 38.8%.
With CC(=O)NCCS(=O)(=O)O.[Mg] [Test I, Magnesium 2-acetylamino ethane sulfonic acid] the “% Viability” value [1] was 42.39%.

From patent US12678428B2, “Synergistic composition for inhibiting vascular calcification” (Celagenex Research (India) Pvt. Ltd., priority 2021, dated 2026)
